According to article PMC5218480 (PLoS ONE, 2017):

System: MV-4-11 cells
Assay: Gene expression microarray analysis (Affymetrix PrimeView) and GSEA
Type: cell-based, human
Parameters: RFU PODN (11730768_x_at) / Fold change /veh PODN (11730768_x_at) / RFU LINC00158 (11744669_a_at) / Fold change /veh LINC00158 (11744669_a_at) / RFU DUSP10 (11751237_a_at) / Fold change /veh DUSP10 (11751237_a_at) / RFU ID3 (11757404_x_at) / Fold change /veh ID3 (11757404_x_at) / RFU PLEKHG5 (11737974_s_at) / Fold change /veh PLEKHG5 (11737974_s_at) / RFU LRRC4B (11730491_at) / Fold change /veh LRRC4B (11730491_at) / RFU GIMAP4 (11747438_a_at) / Fold change /veh GIMAP4 (11747438_a_at) / RFU KRT8 (11758183_x_at) / Fold change /veh KRT8 (11758183_x_at) / RFU CNN1 (11734310_a_at) / Fold change /veh CNN1 (11734310_a_at) / RFU VPS37D (11726825_at) / Fold change /veh VPS37D (11726825_at) / RFU C10orf10 (11716522_x_at) / Fold change /veh C10orf10 (11716522_x_at) / RFU KIR2DL2 /// KIR2DL4 /// KIR2DL5A /// KIR2DL5B /// KIR2DS1 /// KIR2DS2 /// KIR2DS3 /// KIR2DS4 /// KIR3DL3 /// KIR3DL3 /// KIR3DS1 (11738374_at) / Fold change /veh KIR2DL2 /// KIR2DL4 /// KIR2DL5A /// KIR2DL5B /// KIR2DS1 /// KIR2DS2 /// KIR2DS3 /// KIR2DS4 /// KIR3DL3 /// KIR3DL3 /// KIR3DS1 (11738374_at) / RFU C1QL1 (11718748_at) / Fold change /veh C1QL1 (11718748_at) / RFU TMPRSS4 (11747572_a_at) / Fold change /veh TMPRSS4 (11747572_a_at) / RFU HAMP (11756126_x_at) / Fold change /veh HAMP (11756126_x_at) / RFU RNFT2 (11725882_a_at) / Fold change /veh RNFT2 (11725882_a_at) / RFU NR4A2 (11747474_a_at) / Fold change /veh NR4A2 (11747474_a_at) / RFU ABCC12 (11746883_a_at) / Fold change /veh ABCC12 (11746883_a_at) / RFU TMEM136 (11760407_x_at) / Fold change /veh TMEM136 (11760407_x_at) / RFU CLDN22 /// WWC2 (11732394_at) / Fold change /veh CLDN22 /// WWC2 (11732394_at) / RFU HLA-DPB1 (11760878_x_at) / Fold change /veh HLA-DPB1 (11760878_x_at) / RFU SPINT1 (11716480_a_at) / Fold change /veh SPINT1 (11716480_a_at) / RFU GAP43 (11754022_s_at) / Fold change /veh GAP43 (11754022_s_at) / RFU A4GNT (11735810_at) / Fold change /veh A4GNT (11735810_at) / RFU PRB3 (11715151_x_at) / Fold change /veh PRB3 (11715151_x_at) / RFU TUBB4B (11761932_at) / Fold change /veh TUBB4B (11761932_at) / RFU CAPN14 (11732068_a_at) / Fold change /veh CAPN14 (11732068_a_at) / RFU TMCC2 (11721928_a_at) / Fold change /veh TMCC2 (11721928_a_at) / RFU IRGQ (11745062_a_at) / Fold change /veh IRGQ (11745062_a_at) / RFU FAM174B (11720279_a_at) / Fold change /veh FAM174B (11720279_a_at) / RFU TMPRSS4 (11748680_a_at) / Fold change /veh TMPRSS4 (11748680_a_at) / RFU FAM212B (11763350_a_at) / Fold change /veh FAM212B (11763350_a_at) / RFU PLEKHG5 (11743358_a_at) / Fold change /veh PLEKHG5 (11743358_a_at) / RFU ZSCAN30 (11745921_a_at) / Fold change /veh ZSCAN30 (11745921_a_at) / RFU CMKLR1 (11741424_a_at) / Fold change /veh CMKLR1 (11741424_a_at) / RFU LOC101060620 /// MAPK8IP1 (11723275_at) / Fold change /veh LOC101060620 /// MAPK8IP1 (11723275_at) / RFU SPTSSB (11747773_x_at) / Fold change /veh SPTSSB (11747773_x_at) / RFU PRSS12 (11739890_at) / Fold change /veh PRSS12 (11739890_at) / RFU BIN1 (11741810_x_at) / Fold change /veh BIN1 (11741810_x_at) / RFU WNT11 (11732464_a_at) / Fold change /veh WNT11 (11732464_a_at) / RFU C10orf10 (11716521_a_at) / Fold change /veh C10orf10 (11716521_a_at) / RFU C5orf56 (11738089_at) / Fold change /veh C5orf56 (11738089_at) / RFU CYB561 (11721691_x_at) / Fold change /veh CYB561 (11721691_x_at) / RFU ANKRD19P (11752326_a_at) / Fold change /veh ANKRD19P (11752326_a_at) / RFU OR2T12 /// OR2T33 /// OR2T8 (11738714_s_at) / Fold change /veh OR2T12 /// OR2T33 /// OR2T8 (11738714_s_at) / RFU VCAN (11748164_a_at) / Fold change /veh VCAN (11748164_a_at) / RFU JSRP1 (11732532_at) / Fold change /veh JSRP1 (11732532_at) / RFU KRTAP10-11 (11738290_x_at) / Fold change /veh KRTAP10-11 (11738290_x_at) / RFU MYO3A (11730013_a_at) / Fold change /veh MYO3A (11730013_a_at) / RFU EBF3 (11725865_a_at) / Fold change /veh EBF3 (11725865_a_at) / RFU CAMK2N1 (11719241_x_at) / Fold change /veh CAMK2N1 (11719241_x_at) / RFU C5orf56 (11738088_a_at) / Fold change /veh C5orf56 (11738088_a_at) / RFU OLFML3 (11715873_a_at) / Fold change /veh OLFML3 (11715873_a_at) / RFU LOC100653217 /// NTM (11731650_a_at) / Fold change /veh LOC100653217 /// NTM (11731650_a_at) / RFU MAPK11 (11762145_a_at) / Fold change /veh MAPK11 (11762145_a_at) / RFU FIZ1 (11724087_x_at) / Fold change /veh FIZ1 (11724087_x_at) / RFU OASL (11726364_x_at) / Fold change /veh OASL (11726364_x_at) / RFU SOX15 (11748057_x_at) / Fold change /veh SOX15 (11748057_x_at) / RFU CD79A (11719716_a_at) / Fold change /veh CD79A (11719716_a_at) / RFU HIST1H1D (11736915_at) / Fold change /veh HIST1H1D (11736915_at) / RFU CASKIN2 (11723855_a_at) / Fold change /veh CASKIN2 (11723855_a_at) / RFU LOC730098 (11760151_x_at) / Fold change /veh LOC730098 (11760151_x_at) / RFU OR4N2 (11742367_at) / Fold change /veh OR4N2 (11742367_at) / RFU PRRT2 (11749266_a_at) / Fold change /veh PRRT2 (11749266_a_at) / RFU SNX32 (11753110_a_at) / Fold change /veh SNX32 (11753110_a_at) / RFU CDHR5 (11726645_a_at) / Fold change /veh CDHR5 (11726645_a_at) / RFU RCAN1 (11760418_a_at) / Fold change /veh RCAN1 (11760418_a_at) / RFU FAM167A (11723789_a_at) / Fold change /veh FAM167A (11723789_a_at) / RFU FAM26E (11764081_at) / Fold change /veh FAM26E (11764081_at) / RFU ISYNA1 (11749810_s_at) / Fold change /veh ISYNA1 (11749810_s_at) / RFU ACY1 (11761880_at) / Fold change /veh ACY1 (11761880_at) / RFU 11764098_at / Fold change /veh 11764098_at / RFU SAMD14 (11745864_x_at) / Fold change /veh SAMD14 (11745864_x_at) / RFU NPB (11741838_a_at) / Fold change /veh NPB (11741838_a_at) / RFU TMPRSS6 (11731388_a_at) / Fold change /veh TMPRSS6 (11731388_a_at) / RFU KRTAP10-2 (11738614_at) / Fold change /veh KRTAP10-2 (11738614_at) / RFU ARHGAP8 /// PRR5-ARHGAP8 (11727945_x_at) / Fold change /veh ARHGAP8 /// PRR5-ARHGAP8 (11727945_x_at) / RFU KRTAP5-7 /// NADSYN1 (11734609_at) / Fold change /veh KRTAP5-7 /// NADSYN1 (11734609_at) / RFU RASL12 (11751679_a_at) / Fold change /veh RASL12 (11751679_a_at) / RFU CDKN2B (11736163_a_at) / Fold change /veh CDKN2B (11736163_a_at) / RFU PRF1 (11729649_at) / Fold change /veh PRF1 (11729649_at) / RFU, ZNF638 /// ZNF638-IT1 / Fold change vs veh, ZNF638 /// ZNF638-IT1 / RFU, PANK3 / Fold change vs veh, PANK3 / RFU, SH3YL1 / Fold change vs veh, SH3YL1 / RFU, ZEB2 / Fold change vs veh, ZEB2 / RFU, NRIP1 / Fold change vs veh, NRIP1 / RFU, PTTG1IP / Fold change vs veh, PTTG1IP / RFU, CAPN2 / Fold change vs veh, CAPN2 / RFU, MED14 / Fold change vs veh, MED14 / RFU, SNORA58 / Fold change vs veh, SNORA58 / RFU, C1orf63 / Fold change vs veh, C1orf63 / RFU, LRRFIP1 / Fold change vs veh, LRRFIP1 / RFU, NDUFAF7 / Fold change vs veh, NDUFAF7 / RFU, SLC12A2 / Fold change vs veh, SLC12A2 / RFU, IBTK / Fold change vs veh, IBTK / RFU, ESF1 / Fold change vs veh, ESF1 / Fold change vs veh, TMEM50B / RFU, TAOK1 / Fold change vs veh, TAOK1 / RFU, ACBD3 / Fold change vs veh, ACBD3 / RFU, TMA16 / Fold change vs veh, TMA16 / RFU, RWDD3 / Fold change vs veh, RWDD3 / RFU, BCAT1 / Fold change vs veh, BCAT1 / RFU, EDEM3 / Fold change vs veh, EDEM3 / RFU, TMEM33 / Fold change vs veh, TMEM33 / RFU, WDR75 / Fold change vs veh, WDR75 / RFU, AHCTF1 / Fold change vs veh, AHCTF1 / RFU, TFRC / Fold change vs veh, TFRC / RFU, ZDHHC17 / Fold change vs veh, ZDHHC17 / RFU, NOM1 / Fold change vs veh, NOM1 / RFU, ARL8B / Fold change vs veh, ARL8B / RFU, ZBTB11 / Fold change vs veh, ZBTB11 / RFU, TAMM41 / Fold change vs veh, TAMM41 / RFU, KIAA1704 /// LOC100996395 / Fold change vs veh, KIAA1704 /// LOC100996395 / RFU, ING1 / Fold change vs veh, ING1 / RFU, TRMT61B / Fold change vs veh, TRMT61B / RFU, FUBP3 / Fold change vs veh, FUBP3 / RFU, TP53 / Fold change vs veh, TP53 / RFU, TNKS2 / Fold change vs veh, TNKS2 / RFU, ZFP14 / Fold change vs veh, ZFP14 / RFU, ACTR2 / Fold change vs veh, ACTR2 / RFU, PPP3R1 / Fold change vs veh, PPP3R1 / RFU, PIK3R1 / Fold change vs veh, PIK3R1 / RFU, HNRNPA1 / Fold change vs veh, HNRNPA1 / RFU, RNF170 / Fold change vs veh, RNF170 / RFU, ZNF28 / Fold change vs veh, ZNF28 / RFU, RNGTT / Fold change vs veh, RNGTT / RFU, OGT / Fold change vs veh, OGT / RFU, BRD1 / Fold change vs veh, BRD1 / RFU, MARS / Fold change vs veh, MARS / RFU, ZNF655 / Fold change vs veh, ZNF655 / RFU, FAHD1 / Fold change vs veh, FAHD1 / RFU, BDP1 / Fold change vs veh, BDP1 / RFU, LRRCC1 / Fold change vs veh, LRRCC1 / RFU, ARID1A / Fold change vs veh, ARID1A / RFU, ZNF146 / Fold change vs veh, ZNF146 / RFU, ZNF330 / Fold change vs veh, ZNF330 / RFU, GPN3 / Fold change vs veh, GPN3 / RFU, C9orf123 / Fold change vs veh, C9orf123 / RFU, N4BP2L2 / Fold change vs veh, N4BP2L2 / RFU, ARFIP1 / Fold change vs veh, ARFIP1 / RFU, FAM179B / Fold change vs veh, FAM179B / RFU, BCL10 / Fold change vs veh, BCL10 / RFU, UHRF1BP1L / Fold change vs veh, UHRF1BP1L / RFU, BET1 / Fold change vs veh, BET1 / RFU, CNOT2 / Fold change vs veh, CNOT2 / RFU, ZNF268 / Fold change vs veh, ZNF268 / Fold change vs veh, ZNF507 / RFU, DGCR2 / Fold change vs veh, DGCR2 / RFU, WDSUB1 / Fold change vs veh, WDSUB1 / Fold change vs veh, HSP90B1 /// MIR3652 / RFU, ADSS / Fold change vs veh, ADSS / RFU, GK / Fold change vs veh, GK / RFU, ZNF148 / Fold change vs veh, ZNF148 / RFU, TAF9 / Fold change vs veh, TAF9 / RFU, SLC1A5 / Fold change vs veh, SLC1A5 / RFU, SLMO2 / Fold change vs veh, SLMO2 / RFU, ABCC4 / Fold change vs veh, ABCC4 / RFU, LOC101060439 /// RAP1B / Fold change vs veh, LOC101060439 /// RAP1B / RFU, RFX7 / Fold change vs veh, RFX7 / RFU, GTPBP10 / Fold change vs veh, GTPBP10 / RFU, CNEP1R1 / Fold change vs veh, CNEP1R1 / RFU, BIVM-ERCC5 /// ERCC5 / Fold change vs veh, BIVM-ERCC5 /// ERCC5 / RFU, ILF3 / Fold change vs veh, ILF3 / RFU 11762660_at / Fold change /veh 11762660_at / RFU VCAN (11757783_s_at) / Fold change /veh VCAN (11757783_s_at) / RFU DDX43 (11728927_at) / Fold change /veh DDX43 (11728927_at) / RFU KRT8 (11758188_x_at) / Fold change /veh KRT8 (11758188_x_at) / RFU NKD1 (11759106_at) / Fold change /veh NKD1 (11759106_at) / RFU SRD5A1 (11742802_a_at) / Fold change /veh SRD5A1 (11742802_a_at) / RFU TPSAB1 /// TPSB2 (11721975_s_at) / Fold change /veh TPSAB1 /// TPSB2 (11721975_s_at) / RFU GSTM3 (11746129_a_at) / Fold change /veh GSTM3 (11746129_a_at) / RFU IL23R (11737362_x_at) / Fold change /veh IL23R (11737362_x_at) / RFU TMEM51 (11727254_a_at) / Fold change /veh TMEM51 (11727254_a_at) / RFU PIWIL2 (11732686_x_at) / Fold change /veh PIWIL2 (11732686_x_at) / RFU ORM1 (11744905_x_at) / Fold change /veh ORM1 (11744905_x_at) / RFU CCDC152 (11743942_at) / Fold change /veh CCDC152 (11743942_at) / RFU ECM1 (11717891_a_at) / Fold change /veh ECM1 (11717891_a_at) / RFU IL23R (11748794_a_at) / Fold change /veh IL23R (11748794_a_at) / RFU TNFAIP8L3 (11732012_x_at) / Fold change /veh TNFAIP8L3 (11732012_x_at) / RFU MBOAT4 (11741988_at) / Fold change /veh MBOAT4 (11741988_at) / RFU 11764193_at / Fold change /veh 11764193_at / RFU TMEM53 (11763286_at) / Fold change /veh TMEM53 (11763286_at) / RFU MAGEB2 (11727129_at) / Fold change /veh MAGEB2 (11727129_at) / RFU TMEM200A (11744735_a_at) / Fold change /veh TMEM200A (11744735_a_at) / RFU CCDC152 (11751479_a_at) / Fold change /veh CCDC152 (11751479_a_at) / RFU FAM211A (11726209_a_at) / Fold change /veh FAM211A (11726209_a_at) / RFU RGS16 (11746705_a_at) / Fold change /veh RGS16 (11746705_a_at) / RFU VCAN (11755009_s_at) / Fold change /veh VCAN (11755009_s_at) / RFU RHOB (11743442_s_at) / Fold change /veh RHOB (11743442_s_at) / RFU RGS16 (11720943_a_at) / Fold change /veh RGS16 (11720943_a_at) / RFU RGS16 (11720944_at) / Fold change /veh RGS16 (11720944_at) / RFU, VPS4B / Fold change vs veh, VPS4B / RFU, CREB1 / Fold change vs veh, CREB1 / RFU, DNAJC13 / Fold change vs veh, DNAJC13 / RFU, GNAQ / Fold change vs veh, GNAQ / RFU, CDK5R1 / Fold change vs veh, CDK5R1 / RFU, ZRANB3 / Fold change vs veh, ZRANB3 / RFU, CUL4A / Fold change vs veh, CUL4A / RFU, CCNY / Fold change vs veh, CCNY / RFU, UFL1 / Fold change vs veh, UFL1 / RFU, COG3 / Fold change vs veh, COG3 / RFU, DIAPH2 / Fold change vs veh, DIAPH2 / RFU, SKA2 / Fold change vs veh, SKA2 / RFU, AFF3 / Fold change vs veh, AFF3 / RFU, LMF1 / Fold change vs veh, LMF1 / RFU, IPO11 / Fold change vs veh, IPO11 / RFU, DFFB / Fold change vs veh, DFFB / RFU, FOXP1 / Fold change vs veh, FOXP1 / RFU, CARD8 / Fold change vs veh, CARD8 / RFU, STRN3 / Fold change vs veh, STRN3 / RFU, ADK / Fold change vs veh, ADK / RFU, RASSF2 / Fold change vs veh, RASSF2 / RFU, WIPF1 / Fold change vs veh, WIPF1 / RFU, LARP1B / Fold change vs veh, LARP1B / RFU, RASA1 / Fold change vs veh, RASA1 / RFU, RB1 / Fold change vs veh, RB1 / RFU, PPFIA1 / Fold change vs veh, PPFIA1 / RFU, MAT2A / Fold change vs veh, MAT2A / RFU, CCT5 / Fold change vs veh, CCT5 / RFU, WDR92 / Fold change vs veh, WDR92 / RFU, CUX1 / Fold change vs veh, CUX1 / RFU, TTC7A / Fold change vs veh, TTC7A / RFU, TMEM135 / Fold change vs veh, TMEM135 / RFU, DEPTOR / Fold change vs veh, DEPTOR / RFU, CPM / Fold change vs veh, CPM / RFU, DNAJB6 / Fold change vs veh, DNAJB6 / RFU, CACNA2D3 / Fold change vs veh, CACNA2D3 / RFU, DTX4 / Fold change vs veh, DTX4 / RFU, TFCP2 / Fold change vs veh, TFCP2 / RFU, GMCL1 /// GMCL1P1 / Fold change vs veh, GMCL1 /// GMCL1P1 / RFU, AEBP2 / Fold change vs veh, AEBP2 / RFU, SNHG1 /// SNORD22 /// SNORD25 /// SNORD26 /// SNORD27 /// SNORD28 /// SNORD29 /// SNORD31 / Fold change vs veh, SNHG1 /// SNORD22 /// SNORD25 /// SNORD26 /// SNORD27 /// SNORD28 /// SNORD29 /// SNORD31 / Fold change (Aza/veh), C12orf56 (ProbeSet 11735607_a_at) / Fold change (ACY-1035/veh), C12orf56 (ProbeSet 11735607_a_at) / Fold change (Aza/veh), FGFR1OP (ProbeSet 11751329_s_at) / Fold change (ACY-1035/veh), FGFR1OP (ProbeSet 11751329_s_at) / Fold change (Aza/veh), VPS36 (ProbeSet 11739960_a_at) / Fold change (ACY-1035/veh), VPS36 (ProbeSet 11739960_a_at) / RFU SYPL1 (11715823_x_at) / Fold change /veh SYPL1 (11715823_x_at) / RFU IGFBP7 (11715501_s_at) / Fold change /veh IGFBP7 (11715501_s_at) / RFU REEP3 (11722064_at) / Fold change /veh REEP3 (11722064_at) / RFU IGLL1 (11728026_x_at) / Fold change /veh IGLL1 (11728026_x_at): dose or concentration left out as unconfirmed
Conditions: ProbeSet 11745260_x_at; LIST B

Nc1ncn([C@@H]2O[C@H](CO)[C@@H](O)[C@H]2O)c(=O)n1 [azacitidine]
RFU, SLC12A2: 29.09 RFU
